Reference: ChEMBL document CHEMBL5678795 (Eur J Pharmacol, 1999)
Peptide text beside a SMILES is read from it.

What was measured:
[1] = Selectivity ratio of IC50 for human ETA receptor stably expressed in CHO cells Membrane to IC50 human ETB receptor stably expressed in CHO cells Membrane; conditions: condition cardiovascular disease; condition vascular disease
[2] = biological target: T1, Endothelin receptor type B (Homo sapiens, UniProt P24530); assay: Binding affinity to ETB receptor (unknown origin) assessed as inhibition constant
T1 sequence (P24530 whole entry): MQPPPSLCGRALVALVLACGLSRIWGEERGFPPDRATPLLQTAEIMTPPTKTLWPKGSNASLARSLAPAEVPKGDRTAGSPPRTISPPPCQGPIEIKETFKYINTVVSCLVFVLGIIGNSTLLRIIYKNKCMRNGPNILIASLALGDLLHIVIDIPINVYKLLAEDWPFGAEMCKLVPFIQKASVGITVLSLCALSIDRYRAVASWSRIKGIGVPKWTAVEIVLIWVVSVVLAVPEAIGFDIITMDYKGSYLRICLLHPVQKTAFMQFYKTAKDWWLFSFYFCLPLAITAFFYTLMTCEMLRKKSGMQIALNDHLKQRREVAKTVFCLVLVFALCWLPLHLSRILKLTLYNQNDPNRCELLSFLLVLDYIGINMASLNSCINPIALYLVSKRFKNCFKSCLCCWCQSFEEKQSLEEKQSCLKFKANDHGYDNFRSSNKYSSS

Endothelin-1 receptor [3] = biological target: T2, Endothelin-1 receptor (Homo sapiens, UniProt P25101); assay: Binding affinity to ETA receptor (unknown origin) assessed as inhibition constant
T2 sequence (P25101 whole entry): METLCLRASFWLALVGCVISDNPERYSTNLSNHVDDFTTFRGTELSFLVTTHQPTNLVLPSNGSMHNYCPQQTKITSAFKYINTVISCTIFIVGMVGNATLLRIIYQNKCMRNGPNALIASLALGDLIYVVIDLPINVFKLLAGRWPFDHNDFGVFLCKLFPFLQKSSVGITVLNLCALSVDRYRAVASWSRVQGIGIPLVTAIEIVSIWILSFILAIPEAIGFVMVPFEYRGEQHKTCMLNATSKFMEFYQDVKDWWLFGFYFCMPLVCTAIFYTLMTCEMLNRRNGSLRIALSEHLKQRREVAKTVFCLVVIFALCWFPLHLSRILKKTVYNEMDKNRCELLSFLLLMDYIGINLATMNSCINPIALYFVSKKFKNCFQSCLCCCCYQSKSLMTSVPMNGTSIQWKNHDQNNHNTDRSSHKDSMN

[4] = Displacement of [125I]ET-1 from human ETB receptor expressed in green monkey COS7 cells Membrane assessed as inhibition constant incubated for 16 to 18 hrs by gamma counter analysis; assay type: cell membranes
[5] = biological target: T1, Endothelin receptor type B; assay: Displacement of [125I]endhothelin-3 from human ETB receptor stably expressed in CHO cells Membrane assessed as inhibition constant at 25 degC incubated for 4 hrs by saturation binding assay; assay type: cell membranes
Endothelin-1 receptor [6] = biological target: T2, Endothelin-1 receptor; assay: Displacement of [125I]endhothelin-1 from human ETA receptor stably expressed in CHO cells Membrane assessed as inhibition constant at 25 degC incubated for 4 hrs by saturation binding assay; assay type: cell membranes
[7] = biological target: Endothelin receptor type B (Oryctolagus cuniculus, UniProt Q9N0W7); assay: Agonist activity to ETB receptor in rabbit pulmonary artery assessed as induction of vessel ring contraction; assay type: functional, tissue-based
Chain of Endothelin receptor type B (Oryctolagus cuniculus, UniProt Q9N0W7) (Q9N0W7 whole entry): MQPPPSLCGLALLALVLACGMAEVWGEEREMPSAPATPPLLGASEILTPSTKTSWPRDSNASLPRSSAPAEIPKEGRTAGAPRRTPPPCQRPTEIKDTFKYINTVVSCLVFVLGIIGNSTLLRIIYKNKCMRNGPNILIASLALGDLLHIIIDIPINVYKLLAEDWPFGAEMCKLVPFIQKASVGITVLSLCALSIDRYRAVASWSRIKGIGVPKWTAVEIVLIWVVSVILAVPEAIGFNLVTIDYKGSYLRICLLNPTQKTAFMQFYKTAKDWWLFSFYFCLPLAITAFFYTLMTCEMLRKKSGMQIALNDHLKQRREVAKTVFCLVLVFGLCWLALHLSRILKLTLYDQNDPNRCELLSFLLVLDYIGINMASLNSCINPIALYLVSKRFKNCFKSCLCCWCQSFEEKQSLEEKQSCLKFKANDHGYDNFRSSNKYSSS

SMILES	Ratio IC50 [1]	Ki [2]	further results
COc1ccccc1Oc1c(NS(=O)(=O)c2ccc(C)cn2)nc(-c2ccnc(-c3nnn[nH]3)c2)nc1OCCO [CLAZOSENTAN]	>1000	> 130 nM	–
COc1cc(OC)nc(O[C@@H](C(=O)O)C(OC)(c2ccccc2)c2ccccc2)n1	160	960 nM	Ki (Endothelin-1 receptor [3]): 6 nM
Cc1cc2c(cc1CC(=O)c1sccc1S(=O)(=O)Nc1onc(C)c1Cl)OCO2 [SITAXENTAN]	>10000	–	Ki [4]: > 4300 nM
CCCOc1ccc2c(c1)[C@@H](c1ccc(OC)cc1OCC(=O)O)[C@H](C(=O)O)[C@H]2c1ccc2c(c1)OCO2 [SB-209670]	90	–	–
CC(C)C[C@@H]1NC(=O)[C@@H](c2cccs2)NC(=O)[C@H](CC(=O)O)NC(=O)[C@H](CC(=O)N2CCN(c3ccccc3)CC2)NC(=O)[C@@H](CC(=O)O)NC(=O)[C@@H](Cc2c[nH]c3ccccc23)NC1=O (HELM PEPTIDE1{D.D.[O=C([C@H](N[*:1])c1cccs1)[*:2]].L.[dW].[dD]}|CHEM1{[c1ccc(N2CCN([*:1])CC2)cc1]}$PEPTIDE1,CHEM1,1:R3-1:R1|PEPTIDE1,PEPTIDE1,1:R1-6:R2$$$V2.0) [listing 1 of 2 here]	–	590 nM	Ki (Endothelin-1 receptor [3]): 1.3 nM
CC(C)C[C@@H]1NC(=O)[C@@H](c2cccs2)NC(=O)[C@H](CC(=O)O)NC(=O)[C@H](CC(=O)N2CCN(c3ccccc3)CC2)NC(=O)[C@@H](CC(=O)O)NC(=O)[C@@H](Cc2c[nH]c3ccccc23)NC1=O (HELM PEPTIDE1{D.D.[O=C([C@H](N[*:1])c1cccs1)[*:2]].L.[dW].[dD]}|CHEM1{[c1ccc(N2CCN([*:1])CC2)cc1]}$PEPTIDE1,CHEM1,1:R3-1:R1|PEPTIDE1,PEPTIDE1,1:R1-6:R2$$$V2.0) [listing 2 of 2 here]	454	–	–
CCCc1cc(C(=O)O)ccc1OC(C(=O)NS(=O)(=O)c1ccc(C(C)C)cc1)c1ccc2c(c1)OCO2 [L-754142]	42	–	Ki [5]: 1420 nM; Ki (Endothelin-1 receptor [6]): 33.6 nM
CC[C@H](C)[C@H](NC(=O)[C@@H](NC(=O)[C@H](CC(=O)O)NC(=O)[C@H](CCC(N)=O)NC(=O)[C@H](Cc1cnc[nH]1)NC(=O)[C@@H]1CSSC[C@H](N)C(=O)N[C@@H]([C@@H](C)O)C(=O)N[C@H]2CSSC[C@H](NC(=O)[C@H](CCC(=O)O)NC(=O)[C@H](CCC(=O)O)NC(=O)[C@H](CC(=O)O)NC(=O)[C@H]([C@@H](C)O)NC(=O)[C@H](CCSC)NC(=O)[C@H](CC(=O)O)NC(=O)[C@H](CC(N)=O)NC2=O)C(=O)N[C@@H](CC(C)C)C(=O)N[C@@H](CC(N)=O)C(=O)N[C@@H](Cc2ccccc2)C(=O)N1)C(C)C)C(=O)N[C@@H](Cc1c[nH]c2ccccc12)C(=O)O	–	–	EC50 [7]: 1.57 nM
CC(C)C[C@H](NC(=O)N1CCCCCC1)C(=O)N[C@H](Cc1cn(C)c2ccccc12)C(=O)N[C@H](Cc1ccccn1)C(=O)O	–	7300 nM	–
CCCOc1ccc2c(c1)[C@@H](c1ccc(OC)cc1OCCO)[C@H](C(=O)O)[C@H]2c1ccc2c(c1)OCO2	1000	–	–
